Patent US9119842B2, “Therapeutic meso-biliverdin IXα compositions and associated methods” (Utah State University, priority 2012, dated 2015)

Experiments:
[1] = tested on: pancreata / islet cells of donor rats; experiment: Islet cell yields after treatment of donor pancreata; type: in vivo, rat (Lewis); settings: for Islet yield: P<0.05 vs control; for Islet yield at 100 μM relative to 10 μM: 100 μM through the pancreatic duct
Protocol: MBV and BV IXα (obtained from Frontier Scientific, Inc., Logan Utah) (both at 1, 10, or 100 μM) were administered to IVC-dissected animals through the pancreatic duct at 37° C. Control animals received no treatment. Pancreata were removed from donor rats (Lewis, BW>300 g), incubated with University of Wisconsin solution and preserved using the two-layer method. See Ito et al., Improvement of canine islet yield by donor pancreas infusion with a p38MAPK inhibitor, Transplantation 86(2): 321-329 (2008). After 20 to 22 hours, islet cells were isolated using the 2-step digestion method after distention with collagenase and then purified by discontinuous Ficoll gradient centrifugation in a COBE 2991 cell processor. See Matsumoto et al., Improvement of pancreatic islet cell isolation for transplantation, Proc. (Bayl. Univ. Med. Cent.) 20(4): 357-362 (2007). Islet cells were counted microscopically and the numbers converted to IEQ (number of islets equivalent to 150 um in diameter.

[2] = target: T1, recombinant human liver BVR (Homo sapiens, UniProt P53004); experiment: BVR enzyme assay (Biliverdin Reduction Kit); type: biochemical; settings: 10-fold dilution of 100 μg mL^−1, enzyme and NADPH, spectrophotometric 300-800 nm, up to 360 minutes
T1 construct: purchased Sigma-Aldrich (St. Louis, Mo.) CS1100; host or cells: Escherichia coli
T1 sequence (P53004 3-296): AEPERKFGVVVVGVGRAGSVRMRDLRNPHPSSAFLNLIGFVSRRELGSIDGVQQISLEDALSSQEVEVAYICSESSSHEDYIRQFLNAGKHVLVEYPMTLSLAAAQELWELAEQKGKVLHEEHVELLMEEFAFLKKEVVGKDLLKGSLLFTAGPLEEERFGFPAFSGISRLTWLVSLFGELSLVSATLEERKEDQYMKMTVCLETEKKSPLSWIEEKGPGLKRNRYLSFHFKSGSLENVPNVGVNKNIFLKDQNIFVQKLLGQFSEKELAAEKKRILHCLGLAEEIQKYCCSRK
Protocol: The Sigma-Aldrich (St. Louis, Mo.) Biliverdin Reduction Kit (catalog #CS1100) and method was used to determine biliverdin reductase (“BVR”) activities with MBV, BV IXα, or phycocyanobilin as substrates. The kit-supplied enzyme was human liver BVR expressed in a recombinant Escherichia coli strain. Before use, MBV, BV IXα, or phycocyanobilin, each at 100 μg mL^−1 in methanol, were diluted 10-fold in the kit-supplied assay buffer, mixed with enzyme and NADPH, and conversion to mesobilirubin IXα, bilirubin IXα, or phycocyanobilirubin was measured spectrophotometrically between 300 and 800 nm for up to 360 minutes.

[3] = tested on: HRT-18 colon cancer cells; experiment: HRT-18 colon cancer cell proliferation in vitro; type: cell-based; settings: 1, 10 and 100 μM vs PBS control; example in present tense
Protocol: (§1) HRT-18 cells are seeded in 6-well plates in a concentration of 25×10^4 cells per well. After 24 hours, incubation, cells are treated with MBV IXα (1, 10, and 100 μM) or phosphate buffered saline (PBS) as a control. Cells are washed, detached with trypsin and resolved in 1 mL of growth media. 100 μL of […] are then analyzed for cell number, viability and cell size. In a xenograft colonic tumor model (see Ollinger et al., Bilirubin Inhibits Tumor Cell Growth via Activation of ERK, Cell Cycle 6:3078-3085 (2007)), 2.5×10^6 HRT 18 colon cancer cells are injected subcutaneously into the lower flank of BALB/c nude mice. At 14 days, MBV treatment is begun by injection of 1, 10 and 100 mg/kg body weight or PBS (controls) twice daily intraperitoneally and tumor diameters are measured daily using a caliper.

[4] = tested on: db/db and obese mice; experiment: Glucose tolerance in type 2 diabetes, db/db and obese mice; type: in vivo; settings: example in present tense
Protocol: MBV (2, 20 and 100 mg kg^−1 daily) is orally administered to 5-week-old db/db and obese mice for 4 weeks. Control mice are given the same feed without added MBV. After 4 weeks, glucose tolerance and insulin tolerance tests are performed. See Ikeda et al., Biliverdin protects against the deterioration of glucose tolerance in db/db mice, Diabetologia 54:2183-2191 (2011). Insulin content is evaluated by immunostaining and ELISA. Oxidative stress markers (8-hydroxy-2′-deoxyguansosine and dihydroethidium staining) and expression of […] are evaluated in isolated islets.

[5] = tested on: Rat thoracic aortic vascular smooth muscle (A7r5) cells; experiment: Suppression of angiotensin II-induced inflammation in A7r5 cells (superoxide anion, NADH/NADPH oxidase); type: cell-based; settings: angiotensin II-treated A7r5 cells; example in present tense
Protocol: Rat thoracic aortic vascular smooth muscle (A7r5) cells cultured in Dulbecco's modified Eagle's medium supplemented with 10% fetal calf serum and 2 mM glutamine are exposed to various concentrations of angiotensin II and MBV for various lengths of time before harvesting. The cells are scraped into balanced salt solution, washed twice by centrifugation, and finally suspended at a density of 2×10^6 cells per mL in the same solution containing 10 mM glucose and 1 mg per mL bovine serum albumin. Superoxide anion levels (of suspensions with 9×10^5 cells) are measured with a luminometer and a commercial luminogen-based detection kit (LumiMax, Agilent Technologies. Inc.).
Angiotensin II and MBV-treated cells suspended in phosphate-buffered saline (with protease inhibitors) are disrupted at ice temperature using a Dounce homogenizer. The cell extracts are fractionated into microsomal membrane and cytosol fractions by standard differential centrifugation procedures. Microsomes, containing plasma and mitochondrial membranes, are recovered as pellets after centrifugation at 29,100 g for 20 min at 4° C. NADH/NADPH oxidase activities of the microsomal fractions are measured with a luminometer and a commercial luminogen-based kit (LumiMax, Agilent Technologies. Inc.).

[6] = tested on: HRT 18 colon cancer cells xenograft; experiment: Xenograft colonic tumor model; type: in vivo, BALB/c nude mice; settings: 1, 10 and 100 mg/kg twice daily intraperitoneally vs PBS; example in present tense
Protocol: as §1

[7] = tested on: transplanted islet cells in recipient rats; experiment: Treatment of donor pancreata followed by islet cell autotransplantation; type: in vivo, rat (Lewis)
Protocol: Pancreata removed from donor rats (Lewis, BW>300 g) were infused with University of Wisconsin solution containing MBV or BV IXα at 1, 10, or 100 μM through the pancreatic duct and preserved using the 2-layer method in Hank's balanced salt solution containing 5% autologous serum as described in Example 5. After 20 to 22 hours, islets were isolated and 3000 IEQ/kg were autotransplanted by infusion into the portal vein of the corresponding rat.

[8] = 1 μM through the pancreatic duct
[9] = 10 μM through the pancreatic duct
[10] = infusion of pancreata through the duct before preservation

Row | Compound | Increase of islet yield over non-treated controls ([1]; 1 μM) | Islet yield [1, 8] | Increase of islet yield over non-treated controls ([1]; 10 μM) | Islet yield [1, 9] | Islet yield at 100 μM relative to 10 μM [1] | BVR activity with the compound as substrate (conversion to reduced product) [2] | HRT-18 colonic cell proliferation in vitro [3] | Development of hyperglycemia and glucose intolerance ([4]; 2, 20 and 100 mg kg^−1 daily orally, 4 weeks) | Levels of oxidative stress markers and NADPH oxidase activities ([4]; oral feeding 4 weeks, compared to controls) | Apoptosis and Bax expression in islets from db/db mice ([4]; oral feeding 4 weeks) | Insulin levels and Pdxl expression ([4]; oral feeding 4 weeks) | Angiotensin II-induced inflammatory processes (NADH/NADPH oxidase activation, superoxide anion production) [5] | Xenograft tumor formation in vivo [6] | Islet cell yields (IEQ values) assessed by laser scanning cytometry ([7]; MBV-treated donor pancreata vs untreated control pancreata) | Tumor necrosis factor α expression (real-time RT-PCR) ([7]; MBV-treated group vs controls) | Plasma C peptide levels after glucagon challenge ([7]; animals receiving MBV-treated islets vs islets from untreated control pancreata) | Adverse effect on islet function [7, 10] | Islet cell apoptosis [7, 10] | Glycemia of recipient rats ([7]; rats transplanted with MBV-treated islets vs untreated islets)
1 | C=CC1=C(C)/C(=C\c2[nH]c(/C=C3N=C(/C=C4/NC(=O)C(C)=C4C=C)C(C)=C/3CCC(=O)O)c(CCC(=O)O)c2C)NC1=O [BV IXα, Biliverdin (“BV”) IXα, reference compound] | 1.04 fold | 1328±358 IEQ/g | 1.24 fold | 1616±451 IEQ/g | did not increase islet yields beyond those with 10 μM concentration |  |  |  |  |  |  |  |  |  |  |  |  |  | 
2 | C/C=C1/C(=C\c2[nH]c(/C=C3N=C(/C=C4/NC(=O)C(CC)=C4C)C(C)=C/3CCC(=O)O)c(CCC(=O)O)c2C)NC(=O)C1C (stereo not shown) [phycocyanobilin, reference compound] |  |  |  |  |  | poor and relatively inactive catalytic substrate |  |  |  |  |  |  |  |  |  |  |  |  | 
3 | meso-biliverdin IXα [MBV] | 1.87 fold | 1599±475 IEQ/g | 1.54 fold | 1318±804 IEQ/g | did not increase islet yields beyond those with 10 μM concentration | kinetics that resembled those for BV IXα conversion to bilirubin IXα | reduces | at least partially prevents | lower and normal compared to those of controls | decreases | increases | suppresses these inflammatory processes | reduces | higher | significantly lower | higher | no adverse effect on islet function | prevented islet cell apoptosis | more euglycemic
